Reference: patent US8481732B2 (Incyte Corporation, priority 2009, dated 2013)
pIC50: −log10 of the molar value.

Biological target: T1, histamine H4 receptor (Homo sapiens, UniProt Q9H3N8)
T1 construct: expressed in transfected cells; host or cells: HEK293SFM cells (membrane preparation)
Experiment: H4 Membrane Binding Assay (3H-Histamine displacement)
Conditions: membranes of recombinant HEK293SFM cells, 10 nM 3H-Histamine, 1.5 hr at room temperature
Method in brief: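 Radioligand is [3H]-histamine; 1000× unlabeled ligand sets nonspecific binding. Receptor source: membrane pellets from HEK293SFM cells carrying human H4 or other histamine subtypes (human H1–H3, mouse H4), in 50 mM Tris-HCl pH 7.5. Filtration through PEI-treated GF/B filters, then scintillation counting.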

T1 sequence (Q9H3N8 whole entry): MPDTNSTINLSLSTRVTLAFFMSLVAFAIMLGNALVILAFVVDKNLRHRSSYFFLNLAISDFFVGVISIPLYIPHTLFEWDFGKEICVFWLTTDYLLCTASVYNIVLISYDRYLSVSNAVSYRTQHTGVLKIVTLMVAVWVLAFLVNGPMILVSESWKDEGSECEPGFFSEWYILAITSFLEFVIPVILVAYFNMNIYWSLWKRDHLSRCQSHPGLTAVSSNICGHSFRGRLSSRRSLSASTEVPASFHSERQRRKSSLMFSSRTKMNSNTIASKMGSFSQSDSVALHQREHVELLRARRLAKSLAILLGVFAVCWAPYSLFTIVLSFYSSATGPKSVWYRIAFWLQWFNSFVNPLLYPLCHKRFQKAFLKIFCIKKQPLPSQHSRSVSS

SMILES	pIC50
CN1CCN(c2cc(-c3ccc4c(c3)CN(c3ccc(-c5ccc(C#N)cc5)cn3)CC4)nc(N)n2)CC1 [Example 18, 4-{6-[7-[2-Amino-6-(4-methylpiperazin-1-yl)pyrimidin-4-yl]-3,4-dihydroisoquinolin-2(1H)-yl]pyridin-3-yl}benzonitrile]	7.47
CN1CCN(c2cc(-c3ccc4c(c3)CN(C(=O)OC3CCN(C(=O)C5CCCC5)CC3)CC4)nc(N)n2)CC1 [Example 67, 1-(Cyclopentylcarbonyl)piperidin-4-yl 7-[2-amino-6-(4-methylpiperazin-1-yl)pyrimidin-4-yl]-3,4-dihydroisoquinoline-2(1H)-carboxylate]	6.96
Cc1cc2c(cc1-c1cc(N3CCN(C)CC3)nc(N)n1)CN(C(=O)NC1CCCCC1)CC2 [Example 78, 7-[2-Amino-6-(4-methylpiperazin-1-yl)pyrimidin-4-yl]-N-cyclohexyl-6-methyl-3,4-dihydroisoquinoline-2(1H)-carboxamide]	6.60
CCOC(=O)[C@H](CCc1ccccc1)NC(=O)c1ccc2c(N3CCN(C)CC3)nc(N)nc2c1 [Example 130, Ethyl (2S)-2-({[2-amino-4-(4-methylpiperazin-1-yl)quinazolin-7-yl]carbonyl}amino)-4-phenylbutanoate]	7.15
COCC1(NC(=O)N2CCc3ccc(-c4cc(N5CCN(C)CC5)nc(N)n4)cc3C2)CCCC1 [Example 94, 7-[2-Amino-6-(4-methylpiperazin-1-yl)pyrimidin-4-yl]-N-[1-(methoxymethyl)cyclopentyl]-3,4-dihydroisoquinoline-2(1H)-carboxamide]	6.83
CN1CCN(c2cc(-c3ccc4c(c3)CNCC4)nc(N)n2)CC1 [Example 1, 4-(4-Methylpiperazin-1-yl)-6-(1,2,3,4-tetrahydroisoquinolin-7-yl)pyrimidin-2-amine]	6.70
CN1CCN(c2cc(-c3ccc4c(c3)CN(C(=O)C3CCC3)CC4)nc(N)n2)CC1 [Example 3, 4-[2-(Cyclobutylcarbonyl)-1,2,3,4-tetrahydroisoquinolin-7-yl]-6-(4-methylpiperazin-1-yl)pyrimidin-2-amine]	6.77
CN1CCN(c2nc(N)nc3cc(C(=O)NCC(=O)OCc4ccccc4)ccc23)CC1 [Example 132, Benzyl({[2-amino-4-(4-methylpiperazin-1-yl)quinazolin-7yl]carbonyl}amino)acetate]	6.86
CN1CCN(c2nc(N)nc3cc(C(=O)NC4CCCc5ccc(OCc6ccc(C#N)cc6)cc54)ccc23)CC1 (centres unmarked) [Example 205, 2-Amino-N-(7-(4-cyanobenzyloxy)-1,2,3,4-tetrahydronaphthalen-1-yl)-4-(4-methylpiperazin-1-yl)quinazoline-7-carboxamide]	7.96
CN1CCN(c2cc(-c3ccc4c(c3)CN(C(=O)Nc3ccc(C#N)nc3)CC4)nc(N)n2)CC1 [Example 44, 7-[2-Amino-6-(4-methylpiperazin-1-yl)pyrimidin-4-yl]-N-(6-cyanopyridin-3-yl)-3,4-dihydroisoquinoline-2(1H)-carboxamide]	6.93
COc1ccccc1-c1ccc(C[C@H](NC(=O)c2ccc3c(N4CCN(C)CC4)nc(N)nc3c2)C(=O)N(C)C)cc1 [Example 152, 2-Amino-N-{(1S)-2-(dimethylamino)-1-[(2′-methoxybiphenyl-4-yl)methyl]-2-oxoethyl}-4-(4-methylpiperazin-1-yl)quinazoline-7-carboxamide]	8.00
CCS(=O)(=O)N1CCC(CC(=O)N2CCc3ccc(-c4cc(N5CCN(C)CC5)nc(N)n4)cc3C2)CC1 [Example 74, 4-(2-{[1-(Ethylsulfonyl)piperidin-4-yl]acetyl}-1,2,3,4-tetrahydroisoquinolin-7-yl)-6-(4-methylpiperazin-1-yl)pyrimidin-2-amine]	6.91
COC(=O)c1ccc(NC(=O)N2CCc3ccc(-c4cc(N5CCN(C)CC5)nc(N)n4)cc3C2)nc1 [Example 45, Methyl 6-({[7-[2-amino-6-(4-methylpiperazin-1-yl)pyrimidin-4-yl]-3,4-dihydroisoquinolin-2(1H)-yl]carbonyl}amino)nicotinate]	7.22
CN1CCN(c2cc(-c3ccc4c(c3)CN(C(=O)N[C@@H]3c5ccccc5C[C@@H]3O)CC4)nc(N)n2)CC1 [Example 87, 7-[2-Amino-6-(4-methylpiperazin-1-yl)pyrimidin-4-yl]-N-[(1R,2S)-2-hydroxy-2,3-dihydro-1H-inden-1-yl]-3,4-dihydroisoquinoline-2(1H)-carboxamide]	6.66
CO[C@H]1CCCC[C@H]1NC(=O)N1CCc2ccc(-c3cc(N4CCN(C)CC4)nc(N)n3)cc2C1 (relative stereo) [Example 55, 7-[2-Amino-6-(4-methylpiperazin-1-yl)pyrimidin-4-yl]-N-(cis-2-methoxycyclohexyl)-3,4-dihydroisoquinoline-2(1H)-carboxamide]	6.92
CCOC(=O)N1CCC(NC(=O)N2CCc3ccc(-c4cc(N5CCN(C)CC5)nc(N)n4)cc3C2)CC1 [Example 52, Ethyl 4-({[7-[2-amino-6-(4-methylpiperazin-1-yl)pyrimidin-4-yl]-3,4-dihydroisoquinolin-2(1H)-yl]carbonyl}amino)piperidine-1-carboxylate]	6.89
CN1CCN(c2cc(-c3ccc4c(c3)CN(C(=O)Nc3nc(C(F)(F)F)cs3)CC4)nc(N)n2)CC1 [Example 50, 7-[2-Amino-6-(4-methylpiperazin-1-yl)pyrimidin-4-yl]-N-[4-(trifluoromethyl)-1,3-thiazol-2-yl]-3,4-dihydroisoquinoline-2(1H)-carboxamide]	7.24
CN1CCN(c2cc(-c3ccc4c(c3)CN(C(=O)N3CCCC3)CC4)nc(N)n2)CC1 [Example 9, 4-(4-Methylpiperazin-1-yl)-6-[2-(pyrrolidin-1-ylcarbonyl)-1,2,3,4-tetrahydroisoquinolin-7-yl]pyrimidin-2-amine]	6.52
Cc1ccc([C@H](C)NC(=O)c2ccc3c(N4CCN(C)CC4)nc(N)nc3c2)cc1 [Example 32, 2-Amino-N-[(1S)-1-(4-methylphenyl)ethyl]-4-(4-methylpiperazin-1-yl)quinazoline-7-carboxamide]	6.48
CN1CCN(c2cc(-c3ccc4c(c3)CN(C(=O)Nc3ccc(Oc5ccccc5)cc3)CC4)nc(N)n2)CC1 [Example 96, 7-[2-Amino-6-(4-methylpiperazin-1-yl)pyrimidin-4-yl]-N-(4-phenoxyphenyl)-3,4-dihydroisoquinoline-2(1H)-carboxamide]	7.28
CCOC(=O)c1cc(C)nc(Oc2cccc(CNC(=O)c3ccc4c(N5CCN(C)CC5)nc(N)nc4c3)c2)c1C#N [Example 186, Ethyl 2-{3-[({[2-amino-4-(4-methylpiperazin-1-yl)quinazolin-7-yl]carbonyl}amino)methyl]phenoxy}-3-cyano-6-methylisonicotinate]	8.10
CN1CCN(c2nc(N)nc3cc(C(=O)NCc4cccc(Oc5cnc6ccccc6n5)c4)ccc23)CC1 [Example 188, 2-Amino-4-(4-methylpiperazin-1-yl)-N-[3-(quinoxalin-2-yloxy)benzyl]quinazoline-7-carboxamide]	7.89
COC(=O)[C@H](Cc1ccc(-c2cnn(C)c2)cc1)NC(=O)c1ccc2c(N3CCN(C)CC3)nc(N)nc2c1 [Example 140, Methyl (2S)-2-({[2-amino-4-(4-methylpiperazin-1-yl)quinazolin-7yl]carbonyl}amino)-3-[4-(1-methyl-1H-pyrazol-4-yl)phenyl]propanoate]	7.38
